Measured values from US20250034196A1, “ESTER DERIVATIVES OF N4-HYDROXYCYTIDINE AND USE THEREOF” (priority 2021, published 2025).

Experiments:
[1] = test system: SARS-CoV-2 Omicron B.1.1.529 variant; assay: microbe, parasite or virus in culture; conditions: Severe acute respiratory syndrome coronavirus 2, Vero C1008, 96 h
[2] = test system: SARS-CoV-2 Omicron B.1.1.529 variant; conditions: Vero E6

Row | SMILES | EC50 [1] [µM] | EC90 [1] [µM] | SI (CC50/EC50) [2]
1 | CC(C)C(=O)OC[C@H]1O[C@@H](n2ccc(NO)nc2=O)[C@H](O)[C@@H]1O [Molnupiravir] | 15.1 | 23.4 | >6.65
2 | CC(=O)ONc1ccn([C@@H]2O[C@H](CO)[C@@H](O)[C@H]2O)c(=O)n1 [EX-2] | 1.6 | 2.48 | 11.38
